Source: US4888049A, “Synergist for biocide” (Kao Corporation, priority 1986, dated 1989)

Test system: Crabgrasses
Assay: Herbicidal effect of Karmex D (DCMU) herbicide with or without compound 6 (Example 6)
Type: in vivo, crabgrass
Settings: compound 6, where added, 2000 ppm in the diluted solution
Experimental: Crabgrasses (30 crabgrasses per pot) which were in a trifoliate stage were treated with the above herbicide in a predetermined concentration. 7 days after the treatment, the weight of survival at the aerical part and the percentage herbicidal effect relative to the untreated section (%) were calculated. 50% herbicidal concentration was also determined.
The above-mentioned preparation was diluted with water to have a predetermined concentration.

CCCCCCCCC(CCCCCC)C[N+](C)(C)Cc1ccc(Cl)cc1 (centres unmarked) [compound 6]
herbicidal effect (%) (active ingredient (DCMU) concn. 125 ppm): 39%
herbicidal effect (%) (active ingredient (DCMU) concn. 250 ppm): 55%
herbicidal effect (%) (active ingredient (DCMU) concn. 500 ppm): 77%
herbicidal effect (%) (active ingredient (DCMU) concn. 1000 ppm): 91%
herbicidal effect (%) (active ingredient (DCMU) concn. 2000 ppm): 100%
